The values below come from PubChem BioAssay (NCI).

Some test systems named below: A549 NSCLC; CCRF-CEM leukemia; HCC-2998 colon; HOP-92 NSCLC; K-562 leukemia; M14 melanoma; NCI/ADR-RES ovarian; OVCAR-4 ovarian; SN12C renal; UO-31 renal.
What all share (test): growth of human tumour cells (NCI), 48 h

Values joined by “and” are separate entries in the source; they are usually repeats but may differ in a detail not shown here. Identical values can stand only once.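 Grown in 96-well plates, cells were treated for 48 hours with each compound at five concentrations. Insufficient inhibition: endpoint recorded as highest concentration tested. Abbreviation: GI50, concentration required for 50% inhibition of growth. TGI: total growth inhibition.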 Where only a bound is given, the exact number is not on record here.

`COc1cc2c(cc1Nc1nc(Nc3ccsc3C(N)=O)c3cc[nH]c3n1)N(C(=O)CN(C)C)CCC2(C)C`: the GI50 in the assay on A549 NSCLC was 0.975 µM; in the assay on CCRF-CEM leukemia, 0.685 µM; in the assay with HCC-2998 colon, 0.485 µM; in the assay with HOP-92 NSCLC, < 0.0025 µM; with K-562 leukemia, 1.75 µM; in the assay on M14 melanoma, 1.43 µM. For the same compound, the GI50 in the assay with NCI/ADR-RES ovarian is 2.01 µM; with OVCAR-4 ovarian it was 3.02 µM; in the assay on SN12C renal, 3.13 µM; with UO-31 renal it was 1.09 µM. Besides, the TGI worked out at 4.69 µM with A549 NSCLC; 3.78 µM with CCRF-CEM leukemia; 4.47 µM with HCC-2998 colon; 0.833 µM with HOP-92 NSCLC; 6.47 µM in the assay on K-562 leukemia; 5.68 µM in the assay on M14 melanoma. For the same compound, the TGI with NCI/ADR-RES ovarian stood at 8.49 µM; in the assay with OVCAR-4 ovarian it was 6.59 µM; with SN12C renal, 7.18 µM; in the assay on UO-31 renal, 4.69 µM.
Consider `CN1c2ccccc2C(C)(C)C12C=Cc1cc(O)ccc1O2` (stereo unspecified), for which the GI50 in the assay on A549 NSCLC is 4.46 µM; in the assay with CCRF-CEM leukemia it was 2.87 µM; in the assay with HCC-2998 colon, 4.22 µM; in the assay with HOP-92 NSCLC it was 1.81 µM; with K-562 leukemia it was 3.09 µM; in the assay with M14 melanoma it was 2.35 µM. Also, the GI50 was 1.96 µM with NCI/ADR-RES ovarian, 4.73 µM in the assay with OVCAR-4 ovarian, 3.19 µM with SN12C renal and 4.02 µM in the assay with UO-31 renal. The TGI with A549 NSCLC was 19.9 µM; with CCRF-CEM leukemia, 10.2 µM; in the assay on HCC-2998 colon it was 9.47 µM; in the assay with HOP-92 NSCLC, 5.88 µM; with K-562 leukemia, > 100 µM; in the assay on M14 melanoma, 5.52 µM. Besides, the TGI with NCI/ADR-RES ovarian worked out at 7.14 µM; in the assay on OVCAR-4 ovarian, 17.6 µM; in the assay with SN12C renal, 17.2 µM; in the assay with UO-31 renal, 19.5 µM.
As to `N#CSCC1CC(O)(c2ccccc2)CC(c2ccc(F)cc2)O1` (stereo unspecified), the GI50 is 3.86 µM in the assay with A549 NSCLC; 1.72 µM with CCRF-CEM leukemia; 4.02 µM in the assay on HCC-2998 colon; 1.93 µM with HOP-92 NSCLC; 2.14 µM in the assay on K-562 leukemia; 1.62 µM with M14 melanoma. Besides, the GI50 in the assay on NCI/ADR-RES ovarian was 1.92 µM; in the assay with OVCAR-4 ovarian, 2.42 µM; in the assay with SN12C renal, 1.8 µM; with UO-31 renal, 1.82 µM. Further, the TGI with A549 NSCLC turned out to be 18.5 µM; with CCRF-CEM leukemia it was 6.08 µM; in the assay with HCC-2998 colon, 17.6 µM; in the assay on HOP-92 NSCLC it was 6.05 µM; in the assay on K-562 leukemia, 7.31 µM; in the assay on M14 melanoma it was 3.13 µM. Besides, the TGI with NCI/ADR-RES ovarian came out at 4.77 µM; in the assay with OVCAR-4 ovarian, 8.08 µM; with SN12C renal, 3.47 µM; in the assay on UO-31 renal, 6.03 µM.
Turning to `NC(=O)c1ccc2nc(-c3ccc(Oc4ccc(Cl)cc4)cc3)[nH]c2c1`, the GI50 is 49.8 µM and 10.4 µM in the assay on A549 NSCLC; 23.5 µM and 15.7 µM in the assay on CCRF-CEM leukemia; > 75 µM with HOP-92 NSCLC; 37.8 µM and 10.3 µM in the assay on K-562 leukemia; 19.9 µM and 14.8 µM with M14 melanoma; > 75 µM and 13.3 µM in the assay on NCI/ADR-RES ovarian. Also, the GI50 in the assay with OVCAR-4 ovarian is 41.7 µM and 11.4 µM; with SN12C renal, 39.4 µM and 14.6 µM; in the assay with UO-31 renal it was 30 µM and 24.1 µM. Besides, the TGI with A549 NSCLC is 75 µM and 28 µM; with CCRF-CEM leukemia, 75 µM and 64.1 µM; with HCC-2998 colon, 75 µM and 33.5 µM; in the assay with HOP-92 NSCLC it was > 75 µM; in the assay on K-562 leukemia, 75 µM and 88.3 µM; with M14 melanoma it was 75 µM and 29.8 µM. Further, the TGI in the assay with NCI/ADR-RES ovarian is > 75 µM and 32.9 µM; in the assay on OVCAR-4 ovarian, 75 µM and 31.1 µM; in the assay on SN12C renal, 75 µM and 30.2 µM; in the assay with UO-31 renal, 75 µM and > 100 µM.
Take `c1csc(-c2cc(-c3cccs3)c(-c3cccs3)s2)c1`: the TGI with A549 NSCLC, in the assay on CCRF-CEM leukemia, in the assay on HCC-2998 colon, in the assay on HOP-92 NSCLC, in the assay with K-562 leukemia and with M14 melanoma was > 100 µM each time. Besides, the TGI with NCI/ADR-RES ovarian, in the assay on OVCAR-4 ovarian, in the assay on SN12C renal and with UO-31 renal was > 100 µM each time.
Turning to `COc1ccc2c(c1)n([O-])c1ccccc1[n+]2=O`, the TGI in the assay with A549 NSCLC is > 100 µM and 44.7 µM; with CCRF-CEM leukemia, > 100 µM; in the assay with HCC-2998 colon, > 100 µM; in the assay on HOP-92 NSCLC, > 100 µM; in the assay on K-562 leukemia it was > 100 µM; in the assay with M14 melanoma, > 100 µM and 21.7 µM. Besides, the TGI with NCI/ADR-RES ovarian is > 100 µM and 97.9 µM; in the assay on OVCAR-4 ovarian, 77.8 µM; in the assay on SN12C renal, > 100 µM; in the assay on UO-31 renal it was 46 µM and 36.6 µM. The GI50 was 42.6 µM and 15.6 µM with K-562 leukemia; 62.1 µM and 7.9 µM in the assay on M14 melanoma.
In the case of `CC(C)CCN=C(N)c1ccc(N2CCN(c3ccc(C(N)=NCCC(C)C)cc3)CC2)cc1`, the GI50 with A549 NSCLC is 7.61 µM; with CCRF-CEM leukemia, 6.37 µM; with HCC-2998 colon, 11.1 µM; with HOP-92 NSCLC it was 3.86 µM; with K-562 leukemia it was 2.09 µM; in the assay with M14 melanoma it was 11.7 µM. Moreover, the GI50 is 61.4 µM in the assay with NCI/ADR-RES ovarian, 3.4 µM in the assay with OVCAR-4 ovarian, 7.52 µM with SN12C renal and 39.5 µM with UO-31 renal. Also, the TGI with A549 NSCLC is > 100 µM; in the assay on CCRF-CEM leukemia, 26.4 µM; in the assay with HCC-2998 colon, 37.4 µM; in the assay with HOP-92 NSCLC, 24.3 µM; in the assay on K-562 leukemia, > 100 µM; in the assay with M14 melanoma, 29.6 µM. For the same compound, the TGI in the assay on NCI/ADR-RES ovarian is > 100 µM; in the assay on OVCAR-4 ovarian it was 33.1 µM; with SN12C renal it was 42.7 µM; with UO-31 renal it was > 100 µM.
Consider `COc1cc(OC)c(/C=C/c2cnc3ccccc3n2)c(OC)c1`, for which the TGI in the assay on A549 NSCLC, with CCRF-CEM leukemia, with HCC-2998 colon, in the assay on HOP-92 NSCLC, with K-562 leukemia and in the assay with M14 melanoma was > 10 µM throughout. Moreover, the TGI in the assay on NCI/ADR-RES ovarian is > 10 µM; with OVCAR-4 ovarian, > 10 µM; with SN12C renal it was > 10 µM; with UO-31 renal it was 1.56 µM.
For `Fc1ccc(Nc2nc3nonc3nc2Nc2ccc(F)cc2)cc1`, the GI50 in the assay on A549 NSCLC is 0.354 µM; with CCRF-CEM leukemia, 0.35 µM; in the assay with HCC-2998 colon it was 0.414 µM; with HOP-92 NSCLC, 0.168 µM; in the assay on K-562 leukemia, 0.352 µM; in the assay with M14 melanoma it was 0.586 µM. The GI50 in the assay on NCI/ADR-RES ovarian was 0.329 µM; in the assay with OVCAR-4 ovarian it was 0.294 µM; with SN12C renal it was 0.301 µM; with UO-31 renal, 0.285 µM. Besides, the TGI in the assay with A549 NSCLC is 11.4 µM; in the assay with CCRF-CEM leukemia, 10.1 µM; in the assay on HCC-2998 colon, 5.49 µM; with HOP-92 NSCLC, 0.629 µM; with K-562 leukemia it was 12.4 µM; in the assay with M14 melanoma it was 10.5 µM. Further, the TGI in the assay with NCI/ADR-RES ovarian worked out at 2.76 µM; in the assay with OVCAR-4 ovarian, 10.9 µM; with SN12C renal, 3.01 µM; in the assay with UO-31 renal, 1.33 µM.
